Entries after “also recorded” stand apart in the source; their conditions may differ.
Tests used:
Plx2A [1] = target: T1, Plx2A (Paenibacillus larvae, UniProt M9V3B7); assay: biochemical
Plx2A [2] = target: T1, Plx2A; assay: biochemical; format: binding
Staphylococcus aureus = tested on: Staphylococcus aureus; parameters: method as in PMID 34740095; details: cited from earlier work
Pseudomonas aeruginosa = tested on: Pseudomonas aeruginosa; parameters: method as in PMID 34740095; details: cited from earlier work
Escherichia coli = tested on: Escherichia coli; parameters: method as in PMID 34740095; details: cited from earlier work
[3] = tested on: P. larvae ERIC I-infected honey bee larva; parameters: method as in PMID 34564612; details: P. larvae ERIC I infection; cited from earlier work
[4] = tested on: model insect cell culture; parameters: method as in PMID 34564612; details: cited from earlier work
Plx2A [5] = target: T1, Plx2A; details: cited from earlier work
C3bot1 = details: cited from earlier work
Vis toxin = tested on: Vis toxin; parameters: method as in PMID 26352925; details: cited from earlier work
C3larvin = tested on: C3larvin; parameters: method as in PMID 25477523; details: read-out: Ki (C3larvin mART enzymatic activity); cited from earlier work

## O=c1c(O)c(-c2ccc(O)cc2)oc2cc(O)cc(O)c12 [Kaempferol, 3,5,7-trihydroxy-2-(4-hydroxyphenyl)-4H-chromen-4-one]
Plx2A [1]
  IC50: 79.9 ± 6 µM
Plx2A [2]
  Kd: 37.3 ± 3.6 µM

## O=c1cc(-c2ccc(O)c(O)c2)oc2cc(O)cc(O)c12 [Luteolin, 2-(3,4-dihydroxyphenyl)-5,7-dihydroxy-4H-chromen-4-one]
Plx2A [1]
  IC50: 68.1 ± 1.8 µM
Plx2A [2]
  Kd: 24 ± 1.5 µM

## O=c1c(O)c(-c2ccc(O)c(O)c2)oc2cc(O)cc(O)c12 [Quercetin, 2-(3,4-dihydroxyphenyl)-3,5,7-trihydroxy-4H-chromen-4-one]
Plx2A [1]
  IC50: 24.3 ± 0.8 µM
  Ki: 18 ± 2.8 µM
  Mechanism of inhibition of Plx2A GH activity (Lineweaver-Burk): non-competitive inhibition; also recorded: non-competitive mechanism
Plx2A [2]
  Kd: 19.9 ± 0.4 µM
Staphylococcus aureus
  Antibacterial activity: potent antibacterial activity
Pseudomonas aeruginosa
  Antibacterial activity: potent antibacterial activity
Escherichia coli
  Antibacterial activity: potent antibacterial activity

## CS(=O)(=O)NC[C@@H]1CCCN(c2ncnc3[nH]ncc23)C1 [Inhibitor M3, N-{[(3R)-1-{1H-pyrazolo[3,4-d]pyrimidin-4-yl}piperidin-3-yl]methyl}methanesulfon amide]
[3]
  Protection of honey bee larva / reduction of larval mortality: failed to protect honey bee larva
Plx2A [1]
  IC50: 216 ± 22.7 µM
[4]
  Concentration that protected the cell culture against Plx2A cytotoxicity (prevented bi-nucleated cells): 300 µM
  Protection of cultured insect cells from Plx2A intoxication: protected the cultured cells from Plx2A intoxication
Plx2A [5]
  Inhibition of Plx2A GH activity: potent inhibitor; also recorded: strong inhibitors
C3bot1
  Inhibition of C3bot1: effective inhibitor
Vis toxin
  Inhibition of Vis toxin: effective inhibitor
C3larvin
  Ki: 11 µM

## O=c1cc(-c2ccccc2)oc2cc(O)cc(O)c12 [Chrysin, 5,7-dihydroxy-2-phenyl-4H-chromen-4-one]
Plx2A [1]
  IC50: 49.2 ± 2.5 µM
Plx2A [2]
  Kd: 40.6 ± 4.7 µM

## O=c1c(O)c(-c2ccc(O)cc2O)oc2cc(O)cc(O)c12 [Morin, 2-(2,4-dihydroxyphenyl)-3,5,7-trihydroxy-4H-chromen-4-one]
Plx2A [1]
  IC50: 109 ± 4.8 µM
Plx2A [2]
  Kd: 32.8 ± 11.7 µM

## COc1cc(-c2cc(=O)c3c(O)c(OC)c(O)cc3o2)ccc1O [Jaceosidin, 5,7-dihydroxy-2-(4-hydroxy-3-methoxyphenyl)-6-methoxy-4H-chromen-4-one]
Plx2A [1]
  IC50: 73.9 ± 4.7 µM
Plx2A [2]
  Kd: 24.1 ± 2.9 µM

## O=c1cc(-c2ccccc2)oc2cc(O)c(O)c(O)c12 [Baicalein, 5,6,7-trihydroxy-2-phenyl-4H-chromen-4-one]
[4]
  Protection of cultured insect cells from Plx2A intoxication: not Baicalein
Plx2A [5]
  Inhibition of Plx2A GH activity: strong inhibitors

## COc1ccc(-c2cc(=O)c3c(O)cc(O)cc3o2)cc1 [Acacetin, 5,7-dihydroxy-2-(4-methoxyphenyl)-4H-chromen-4-one]
[4]
  Concentration that protected the cell culture against Plx2A cytotoxicity (prevented bi-nucleated cells): 30 µM
  Protection of cultured insect cells from Plx2A intoxication: protected the cultured cells from Plx2A intoxication
Plx2A [5]
  Inhibition of Plx2A GH activity: strong inhibitors

Source: PMC8704661, “A Structural Approach to Anti-Virulence: A Discovery Pipeline” (Microorganisms, 2021)
